# Measured values: US20220117958A1, “COMPOSITIONS AND METHODS FOR INHIBITING ACSS2” (THE TRUSTEES OF THE UNIVERSITY OF PENNSYLVANIA, priority 2018, published 2022)
# Columns and labels:
# [1] = system: mice; test: Fear reconsolidation behavioral study; format: in vivo; settings: 2 mg/kg immediately before and 30 min after each of 4 dosed cue-recall sessions, versus DMSO
# Experimental: 3 CS-US pairings were performed: tone is 30 seconds long co-terminating with 2 second, 1 mA shock. No drug or vehicle was administered.
# Subsequent to the acquisition, and following the schedule provided, above, recall and reconsolidation sessions ensued. The cage was altered in context (floor board, walls, vanilla scent). The same paradigm as acquisition was used for reconsolidation and recall exposures but no shock was delivered. The following procedure was followed: (1) 2 min habituation to box; (2) 30 sec tones; (3) 1 min it is.
# Injections of ADG-205c or DMSO at dosage of 2 mg/kg are administered at the following time points: Immediately before reconsolidation/recall; and then 30 minutes following reconsolidation/recall.
# [2] = system: Male Sprague-Dawley rat; test: Fear conditioning in rats (cued memory test); format: in vivo; settings: IP, dosed 5 min before and 30 min after acquisition, versus vehicle
# Experimental: A. Fear Conditioning in Rats
# Species: Rat; Strain: Male Sprague-Dawley (CD-SD strain 001; Charles River Labs); Age or weight: 7 to 9 weeks, approximately 250 grams
# Formulation(s): 5% DMSO in 0.5% methylcellulose
# Dose Levels: 4 mg/kg total; distributed into 2 injections of 2 mg/kg
# Dose Frequency: Twice; once prior to shock cycle and once right after last shock • 1st Injection—5 minutes before being placed into fear conditioning chamber • 2nd Injection—30 minutes after coming out of fear conditioning chamber (alternatively 30 min after last shock) • Study duration: 3 days
# Rats are handled for 3 consecutive days for ˜2 minutes each day prior to the experiment. […]
# Day 1—Conditioning (Acquisition)—animals are placed in the chambers and presented a training session (Context A). […] Freezing behavior (immobility) is recorded in 10-second intervals during the session. Percent baseline freezing behavior is determined in the 3-minute habituation period. […]
# The rats were provided 3 minutes habituation. […] Data is recorded in 10 see epochs. […]
# Animals are placed in the chambers with a different (lemon) scent and black Plexiglas floor over the grid floor (Context B). Freezing behavior in response to an altered context is recorded for 2 minutes in 10-second intervals. Then the 80 dB tone is presented for 8 minutes and immobility is recorded in 10-second intervals to measure freezing response to the tone cue.
smiles,measurement,setting,value
"COCCNC(=O)Nc1ccc2nc(-c3cccs3)c(-c3cccs3)nc2c1 [ADG-205c, 1-(2,3-di(thiophen-2-yl)quinoxalin-6-yl)-3-(2-methoxyethyl)urea]",Fear response (freezing) after reconsolidation sessions,[1],observable reduced fear response
same,Freezing during cue presentation (cued memory test),[2]; listed as EPV018,significant reduced freezing
same,Freezing during cue presentation (cued memory test),[2]; listed as EPV-018,statistically significant reduction
